The test deals with T1, ELIC (Erwinia chrysanthemi ligand-gated ion channel) (Dickeya chrysanthemi, UniProt P0C7B7).
T1 sequence (P0C7B7 1-321): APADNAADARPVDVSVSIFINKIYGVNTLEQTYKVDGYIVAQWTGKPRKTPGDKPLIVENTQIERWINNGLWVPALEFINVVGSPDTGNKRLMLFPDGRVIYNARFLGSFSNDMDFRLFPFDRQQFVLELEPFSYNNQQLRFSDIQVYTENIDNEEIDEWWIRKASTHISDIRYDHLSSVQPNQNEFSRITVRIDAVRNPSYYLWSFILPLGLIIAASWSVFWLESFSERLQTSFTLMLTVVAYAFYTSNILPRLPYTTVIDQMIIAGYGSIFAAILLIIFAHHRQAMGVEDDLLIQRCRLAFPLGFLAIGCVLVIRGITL
The test is described as follows: ITC. The class given is cell-based.

The EC50 is the concentration giving half of the maximal effect.

Each structure is given as a SMILES string.

The molecule `NCCCO` [3-AP, 3-amino propanol] had an EC50 of 10.02 ± 0.05 mM.
